Literature values in patent US20170128401A1, “DIETARY COMPOSITION FOR IMPROVED PERFORMANCE” (priority 2015, published 2017).

What was measured:
healthy adults [1] = settings: in vivo
healthy adults [2] = settings: in vivo; remark: listed apart in the source
subjects = settings: 400 mg of phosphatidylserine
[3] = 750 mg dose; 85% VO2 max

Compound	VO2max (healthy adults [1])	carbohydrate absorption (healthy adults [2])	decrease in wrong answers (test accuracy) (subjects)	increase in correct answers (test accuracy) (subjects)	increase speed of calculations (subjects)	increase time to exhaustion in anaerobic events [3]
O=C(O[C@@H]1Cc2c(O)cc(O)cc2O[C@@H]1c1cc(O)c(O)c(O)c1)c1cc(O)c(O)c(O)c1 [EGCG, epigallocatechin gallate]	increased	significantly decreased				
phosphatidylserine			39%	13%	20%	29%+/−8
